Assays:
[1] = system: blood vessels; test: In vivo angiogenesis around subcutaneously injected hydrogels (CD31 immunostaining, blood vessel count); details: hydrogel injected subcutaneously in mice, day 21, CD31 immunostaining, four random regions
Method: (§1) 10-week-old OF-1 female mice (Charles Rivers, France) were used for this study. Before the bilateral subcutaneous injection of hydrogels, mice were anaesthetized using 4.5% isoflurane gas and maintained throughout surgery at 2.5% isoflurane with a face mask. The animals were depilated before surgery. The three different hydrogels were prepared as mentioned above and collected in 1 ml syringes, when the solution was in viscous form. The hydrogels were injected subcutaneously by 21-gauge needle on the dorsal side of the animals.
Subcutaneous injection was carried out, as indicated in example 3, in order to characterize the behavior of the hydrogels after subcutaneous injection and in situ gelation. Animals were sacrificed by cervical dislocation one or three weeks after injection of the hydrogel. The biomaterials (i.e. hydrogel) together with the skin surrounding the injection point were harvested after 7, or 21 days and embedded in paraffin. Histological sections of skin portions associated to the hydrogel were then stained to assess the degradation pattern, cell infiltration (data not shown) and angiogenesis.
The blood vessels in and around the hydrogels 21 days after implantation were identified by immunolabelling with rabbit anti-CD31 antibody (Abcam, ref ab28364 dilution:1/100) followed by incubation with HRP-conjugated anti-rabbit secondary antibody (Vector MP-7401, dilution:1/2)
During the regeneration process, the development of neovessels in the remodeling tissue is of major importance. Therefore, immunostaining of CD31, an endothelial cell marker, was performed on day 21 to assess angiogenesis.
CD31 positive cells were not found inside the hydrogels, showing that the non-degraded hydrogels were bad substrates for blood vessel ingress. Figure 11B depicts the quantification of blood vessels counted manually per 0.2mm^2 at four different random regions in the tissue surrounding each hydrogel. […]

[2] = In vivo toxicity after subcutaneous injection of hydrogels (serum ALT, AST, LDH); design: species or system OF-1 female mice; details: hydrogels injected subcutaneously in mice, serum markers up to day 21
Method: as §1
The in vivo toxicity of the hydrogels formed from compounds 17, 20 and GNF was investigated by serum biochemical evaluation such as alanine aminotransferase (ALT Activity Assay Kit, Sigma-Aldrich, ref MAK052), aspartate aminotransaminase (AST Activity Assay Kit, Sigma-Aldrich, ref MAK055), and lactate dehydrogenase (LDH Assay Kit, Abcam, ref ab102526). At day 0 before surgery and three-time points after implantation (3, 7, and 21 days), blood was collected from retro-orbital sinus. The blood samples were allowed to clot then followed by centrifugation to collect the serum. The serum was used for analysis as recommended by the manufacturers.

[3] = system: CAM of chick embryos (Gallus gallus); test: Chick chorioallantoic membrane (CAM) angiogenesis assay; assay type: in vivo; details: 20 µl of 500 µg/ml in DMEM on day 13 and 14, evaluated day 17, versus DMEM control
Method: The angiogenesis assay was performed on the CAM of chick embryos (Gallus gallus) (E.A.R.L. Morizeau, Dangers, France). Embryos were incubated at 37°C and 70% humidity to […]. On day 3 of development, 3-5 ml of egg white was withdrawn by punctuating the air chamber with the syringe, and a window was made by cutting the eggshell and sealed with Durapore® tape. On day 13, prepared plastic rings (made from Nunc Thermanox® coverslips, diameter 13 mm and thickness 0.2mm) were placed on the intact CAM. 20 µl of the molecule (concentration 500 µg/ml in DMEM medium) or an equivalent volume of DMEM alone as control were deposited in the center of the plastic rings. The treatment was repeated the following day followed by photo documentation (day 14). On day 17, the eggs were fixed by addition of 2 ml of 4% paraformaldehyde (Antigenfix) for 30 min at room temperature. Imaging was performed with a stereomicroscope (Nikon SMZ800) using a digital camera (Nikon Coolpix 950). The images were scored for morphological changes of blood capillaries such as sprouting and tortuosity (0=normal, 1=overrepresented) by five observers using a blinded screening test (data not shown).
The angiogenic response was evaluated on day 17 based on two morphological parameters: sprouting, and presence of tortuous vessels (data not shown). […]

[4] = In vitro degradation of the hydrogels (weight loss in PBS); assay type: physicochemical; details: hydrogel 1.5% (w/v), PBS 1X, after 3 weeks at 37°C
Method: Hydrogels were prepared with compound 17, compound 20, GNF at a concentration of 1.5% (w/v) by dissolving the powder in sterile phosphate buffered saline solution (PBS 1X, pH 7.4). The suspensions were heated at 65 °C for GNF and 80°C for the compounds 17 and 20. The GNF solution was incubated at 37 °C for 30 min to form a gel, whereas the other molecules formed the gel within 5 min.
Hydrogels were also prepared from compound A, which was used as a control.
Hydrogel disks (100 µl) were prepared and were incubated in 7 ml of PBS 1X at 37°C for 21 days. All the hydrogel samples were weighed before incubating with the phosphate buffer (initial weight). The samples were removed at different time points (1, 2, 3, 5, 7, 15, and 21 days), weighed immediately after removing the excess of PBS by gently touching the surface of a tissue (Kimwipes™) and put back in the same solution of PBS.
The degradation was monitored by measuring the weight loss of the gels after different periods of incubation. After 3 weeks at 37°C, the remaining weights were 65 ± 4 %, 63 ± 1 %, and 55 ± 2 %, for GNF, compound 17 and compound 20, respectively, as shown on Figure 3..

[5] = MALDI-TOF analysis of degradation products released by the hydrogels in PBS; details: hydrogel, 21-day incubation in PBS at 37°C, MALDI-TOF of the buffer
Method: The degradation products generated during the 21-day incubation of the samples was determined by analyzing the PBS solution in which they were incubated. At day 21 the PBS was collected and analyzed for the degradation products of individual hydrogels by using mass spectroscopy. Studies, performed in triplicates, allowed for the calculation of degradation kinetics.
In order to assess the fragmentation of the molecules during incubation, the by-products of degradation present in the buffer were analysed by MALDI-TOF (Matrix Assisted Laser Desorption Ionization - Time of Flight) mass spectrometry at the end of the experiment (21 days) (Figures 4 and 5).
The analyses were carried out on the MALDI-TOF-TOF Ultraflex (Bruker) in positive reflector mode (detection of positively charged species in the form of [M + H] + and [M + Na] + ions).The external calibration of the spectrometer was carried out with a mixture of components in the mass range m / z 700-2500. The matrix used is a solution of 2,4,6 trihydroxyacetophenone at 20 mg / ml in EtOH / NH4 citrate 25 mM. The samples were diluted by a factor of 50 in water before MS analysis.

Molecule	numbers of blood vessels (bv) in the vicinity of the hydrogel [1] [bv/0.2 mm2]	toxicity to the vital organs [2]	sprouting ([3]; p = 0.0046 (Fisher's exact test))	tortuous vessels ([3]; p = 0.0195 (Fisher's exact test))	remaining weights [4] [%]	fragmentation of the molecules during incubation (degradation products) [5]
1,14-bis-tetradecanyl-5'-[(4-methylamide)-1H-1,2,3-triazol-1-yl]-N-3-[1-((β-D-glucopyranoside)-1H-1,2,3-triazole-4-yl)methyl]-5'-deoxy thymidine [compound 20]	7.95 ± 0.74	did not show any toxicity to the vital organs				
Cc1cn([C@H]2C[C@H](O)[C@@H](CO)O2)c(=O)n(Cc2cn([C@@H]3O[C@H](CO)[C@@H](O)[C@H](O)[C@H]3O)nn2)c1=O [GN-1, N-3-[1-((β-D-Glucopyranoside)-1H-1,2,3-triazol-4-yl)methyl] thymidine]			more CAMs that were treated with GN-1 exhibited sprouting and tortuous vessels	more CAMs that were treated with GN-1 exhibited sprouting and tortuous vessels		
Cc1cn([C@H]2C[C@H](O)[C@@H](Cn3cc(CNC(=O)CCC(F)(F)C(F)(F)C(F)(F)C(F)(F)C(F)(F)C(F)(F)C(F)(F)C(F)(F)F)nn3)O2)c(=O)n(Cc2cn([C@@H]3O[C@H](CO)[C@@H](O)[C@H](O)[C@H]3O)nn2)c1=O [GNF]	6.10 ± 1.07	did not show any toxicity to the vital organs			65 ± 4	fragmentations of the hydrogel molecules as a result of degradation
Cc1cn([C@H]2C[C@H](O)[C@@H](Cn3cc(CNC(=O)NCCCCCCCCCCCCNC(=O)NCc4cn(C[C@H]5O[C@@H](n6cc(C)c(=O)n(Cc7cn([C@@H]8O[C@H](CO)[C@@H](O)[C@H](O)[C@H]8O)nn7)c6=O)C[C@@H]5O)nn4)nn3)O2)c(=O)n(Cc2cn([C@@H]3O[C@H](CO)[C@@H](O)[C@H](O)[C@H]3O)nn2)c1=O [compound 17, 1,12-bis-dodecanyl-5'-[(4-methylurea)-1H-1,2,3-triazol-1-yl]-N-3-[1-((β-D-glucopyranoside)-1H-1,2,3-triazole-4-yl)methyl]-5'-deoxy thymidine]	4.30±0.41	did not show any toxicity to the vital organs				fragmentations of the hydrogel molecules as a result of degradation

Source: patent publication EP3871678A1, “PRO-ANGIOGENIC COMPOUNDS” (UNIVERSITE DE BORDEAUX, priority 2020, dated 2021)
